Data taken from paper PMC3898987 (Bioorganic & Medicinal Chemistry, 2013).
Numbering of substitutions follows the chain as printed.

Legend:
[1] = target: T1, 5-HT3A receptor D165A (Homo sapiens, UniProt P46098, D160A); assay: cell-based
T1 sequence (P46098 24-478 D160A): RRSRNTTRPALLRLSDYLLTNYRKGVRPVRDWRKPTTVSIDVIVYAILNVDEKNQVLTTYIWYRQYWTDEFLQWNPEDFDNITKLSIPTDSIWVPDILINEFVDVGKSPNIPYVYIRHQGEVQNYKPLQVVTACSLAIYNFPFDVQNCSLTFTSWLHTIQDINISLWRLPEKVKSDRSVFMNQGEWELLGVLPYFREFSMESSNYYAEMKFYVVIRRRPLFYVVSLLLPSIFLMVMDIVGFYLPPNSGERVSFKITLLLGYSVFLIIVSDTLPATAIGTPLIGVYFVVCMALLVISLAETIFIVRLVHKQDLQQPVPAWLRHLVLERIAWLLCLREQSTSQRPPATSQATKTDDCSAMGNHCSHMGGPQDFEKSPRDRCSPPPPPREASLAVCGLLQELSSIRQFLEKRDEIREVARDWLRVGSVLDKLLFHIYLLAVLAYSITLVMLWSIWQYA

[2] = target: T2, 5-HT3AB receptor, 5-HT3B subunit H73A (Homo sapiens, UniProt O95264+P46098, H66A); assay: cell-based
T2 sequence (P46098 24-478): T1 sequence (P46098 24-478 D160A) with A137D
T2 sequence (O95264 22-441 H66A): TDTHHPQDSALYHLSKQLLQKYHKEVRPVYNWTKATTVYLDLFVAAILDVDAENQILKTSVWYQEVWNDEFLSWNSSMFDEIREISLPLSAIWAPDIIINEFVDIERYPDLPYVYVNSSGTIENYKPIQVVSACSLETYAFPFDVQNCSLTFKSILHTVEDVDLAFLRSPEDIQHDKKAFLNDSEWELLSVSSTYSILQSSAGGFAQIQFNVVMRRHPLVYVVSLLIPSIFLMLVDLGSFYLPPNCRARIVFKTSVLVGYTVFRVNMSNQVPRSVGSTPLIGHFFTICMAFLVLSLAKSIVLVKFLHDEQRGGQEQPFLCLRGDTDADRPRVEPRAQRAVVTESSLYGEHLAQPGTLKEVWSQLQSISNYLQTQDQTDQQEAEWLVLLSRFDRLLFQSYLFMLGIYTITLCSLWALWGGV
Description: Human embryonic kidney (HEK) 293 cells were cultured on 90 mm tissue culture plates at 37 °C and 7% CO2 in a humidified atmosphere. They were grown in DMEM:F12 (Dulbecco’s Modified Eagle’s Medium/Nutrient Mix F12 (1:1)) with GlutaMAX I™ containing 10% fetal calf serum and passaged when confluent. […] For FlexStation assays, transfected cells were plated on 96-well plates and incubated 1–2 days before assay.
(§1) Fluorometric studies were undertaken using a FlexStation® (Molecular Devices, Sunnyvale, CA, USA) as previously described.[11]
(§2) Fluorescence was measured every 2 s for 200 s. […] Concentration–response and inhibition curves were obtained for each mutant, and the fluorescence values were normalized to the maximal response.

[3] = target: T3, 5-HT3A receptor S163T (Homo sapiens, UniProt P46098, S158T); assay: FlexStation membrane potential dye functional assay, HEK293 cells; assay type: cell-based; parameters: expressed in transfected cells; host or cells: HEK293; conditions: inhibition of 5-HT (EC50 concentration) response, 45 min preincubation, 5-HT3A S163T
T3 sequence (P46098 24-478 S158T): T1 sequence (P46098 24-478 D160A) with S135T, A137D
Description: For FlexStation assays, transfected cells were plated on 96-well plates and incubated 1–2 days before assay.
as §1, §2

[4] = target: T4, WT 5-HT3A receptor (Homo sapiens, UniProt P46098); assay: radioligand saturation binding, transfected HEK293 membranes; conditions: [3H]-palonosetron saturation, 4 °C, 24 h
T4 sequence (P46098 24-478): T1 sequence (P46098 24-478 D160A) with A137D
Description: (§3) Human embryonic kidney (HEK) 293 cells were cultured on 90 mm tissue culture plates at 37 °C and 7% CO2 in a humidified atmosphere. They were grown in DMEM:F12 (Dulbecco’s Modified Eagle’s Medium/Nutrient Mix F12 (1:1)) with GlutaMAX I™ containing 10% fetal calf serum and passaged when confluent. For radioligand binding studies, cells in 90 mm dishes were transfected at 60–70% confluency using polyethyleneimine and incubated for 3–4 days before use. For FlexStation assays, transfected cells were plated on 96-well plates and incubated 1–2 days before assay. […]
(§4) Eight-point binding assays were performed to produce saturation binding curves. […] Radioactive counts were measured using a Beckman LS6000SC liquid scintillation counter (Fullerton, California, USA).
(§5) Data were analyzed by iterative curve fitting using GraphPad Prism v5 (San Diego, CA) according to the following equation: B=Bmax[L]^n/kdn+[L]^n where B is the amount of bound radioligand, Bmax is the maximum specific binding at equilibrium, [L] is the concentration of radioligand, Kd is the equilibrium dissociation constant of the radioligand, and n is the Hill coefficient.

[5] = target: T5, 5-HT3A receptor Y73S (Homo sapiens, UniProt P46098, Y68S); assay: as above; conditions: [3H]-palonosetron saturation, 5-HT3A Y73S, 4 °C, 24 h
T5 sequence (P46098 24-478 Y68S): T1 sequence (P46098 24-478 D160A) with Y45S, A137D
Description: as §3, §4, §5

## O=C1c2cccc3c2[C@H](CCC3)CN1[C@@H]1CN2CCC1CC2 [Palonosetron]
[1]
  IC50: 1.33 ± 0.45 nM
[2]
  IC50: 0.97 ± 0.26 nM
[3]
  IC50: 1.02 ± 0.19 nM
[4]
  Kd: 0.32 ± 0.07 nM
[5]
  Kd: 0.61 ± 0.11 nM
